In patent US12180214B2, “Crystalline forms of (s)-4-amino-6-((1-(3-chloro-6-phenylimidazo[1,2-b]pyridazine-7-yl)ethyl)amino)pyrimidine-5-carbonitrile as inhibitors of phosphatidylinositol-3-kinase” (HUTCHISON MEDIPHARMA LIMITED, priority 2018, dated 2024):
Values after ≈ are worked out from the molar mass of the structure shown.

Columns and labels:
Type in all cases: physicochemical
[1] = Stability of Form I, Form IV, and Form V under high temperature, high humidity and illumination conditions; details: for Stability (chemical purity and crystalline form), conclusion: high temperature, high humidity, and illumination conditions for 10 days
Experimental: Determination method: the test samples of Form I, Form IV, and Form V of compound of Formula A were placed on the culture dishes respectively, which were uncovered and placed in sealed clean containers. The containers were placed under the conditions of a temperature of 60° C., a temperature of 25° C. and a relative humidity of 92.5%±5%, and an illumination of 4500 lx±500 lx respectively for 10 days. Then sampled, investigated for the purity and crystalline form of the samples, and compared the investigation results.

[2] = Hygroscopicity by dynamic vapor sorption (DVS); details: relative humidity of 0-95% at 25° C.
Experimental: Determination method: the test samples of Form I, Form IV, and Form V of compound of Formula A were placed in the sample dishes of the dynamic vapor sorption instrument (DVS-INTRINSIC) respectively. Then the weight gains by moisture absorption of the samples were measured at a relative humidity of 0-95% at 25° C. The results were shown in FIG. 16, FIG. 17, and FIG. 18.

[3] = Solubility of Form I, Form IV, and Form V in buffers of different pH; details: for solubility at 0.5 hour / solubility at 2 hours: buffer, 37 °C, thermodynamic from solid; for Solubility in the test buffers, conclusion: buffers pH 1.2-6.8, 37° C.
Experimental: Determination method: excess amount of samples of Form I, Form IV, and Form V of compound of Formula A were suspended in the buffers of different pH respectively. The system was saturated by shaking for a period of time at 37° C. in a water bath of constant temperature. Then the system was filtered, and the filtrate was used for determining solubility of the samples. The buffers of different pH were prepared according to the US pharmacopeia (USP40-NF35).

[4] = Stability of Form IV mixed with excipients (starch, microcrystalline cellulose); details: high temperature, high humidity, and illumination conditions, 30 days
Experimental: Determination method: 50 mg of samples of Form IV of compound of Formula A were mixed with 200 mg of excipients starch and microcrystalline cellulose respectively. The mixtures were used as Lest samples and placed on the culture dishes respectively, which were uncovered and placed in sealed clean containers. Then the containers were placed under the conditions of a temperature of 60° C., a temperature of 25° C. and a relative humidity of 92.5%±5%, and an illumination of 4500 lx±500 lx respectively for 30 days. Then sampled, investigated for the change of crystalline form of the samples, and compared the investigation results.

[5] = High humidity (92.5% RH), 25° C., 5 days
[6] = High humidity (92.5% RH), 25° C., 10 days
[7] = High temperature (60° C.), 5 days
[8] = High temperature (60° C.), 10 days
[9] = Illumination (4500 Lx), 10 days

Chemical purity (%) ([1]; 0 day)	Chemical purity (%) [1, 5] [%]	Chemical purity (%) [1, 6] [%]	Chemical purity (%) [1, 7] [%]	Chemical purity (%) [1, 8] [%]	Chemical purity (%) ([1]; Illumination (4500 Lx), 5 days)	Chemical purity (%) [1, 9] [%]	Stability (chemical purity and crystalline form), conclusion [1]	Hygroscopicity (weight gain by moisture absorption) [2]	Solubility in the test buffers, conclusion [3]	Compound	also measured
99.76	99.65	99.60	99.63	99.63	99.61	99.45	stable	non-hygroscopic	good solubility	C[C@H](Nc1ncnc(N)c1C#N)c1cc2ncc(Cl)n2nc1-c1ccccc1 [Form I, (S)-4-amino-6-((1-(3-chloro-6-phenylimidazo[1,2-b]pyridazin-7-yl)ethyl)amino)pyrimidine-5-carbonitrile]	solubility at 0.5 hour ([3]; pH 1.2, simulated gastric fluid, buffer pH 1.2, shaken at 37° C. water bath for 0.5 hour): 10800 µg/mL (≈ 27600 µM); solubility at 0.5 hour ([3]; pH 2.1, aqueous buffer, buffer pH 2.1, shaken at 37° C. water bath for 0.5 hour): 800 µg/mL (≈ 2050 µM); solubility at 0.5 hour ([3]; pH 4.5, aqueous buffer, buffer pH 4.5, shaken at 37° C. water bath for 0.5 hour): 40 µg/mL (≈ 102 µM); solubility at 0.5 hour ([3]; pH 6.8, aqueous buffer, buffer pH 6.8, shaken at 37° C. water bath for 0.5 hour): 30 µg/mL (≈ 76.8 µM)
99.27	99.68	99.68	99.57	99.68	99.59	99.55	stable	non-hygroscopic	good solubility	C[C@H](Nc1ncnc(N)c1C#N)c1cc2ncc(Cl)n2nc1-c1ccccc1 [Form IV, (S)-4-amino-6-((1-(3-chloro-6-phenylimidazo[1,2-b]pyridazin-7-yl)ethyl)amino)pyrimidine-5-carbonitrile]	Stability mixed with excipients, conclusion [4]: stable; solubility at 2 hours ([3]; pH 1.2, simulated gastric fluid, buffer pH 1.2, shaken at 37° C. water bath for 2 hours): 8560 µg/mL (≈ 21900 µM); solubility at 2 hours ([3]; pH 2.1, aqueous buffer, buffer pH 2.1, shaken at 37° C. water bath for 2 hours): 500 µg/mL (≈ 1280 µM); solubility at 2 hours ([3]; pH 4.5, aqueous buffer, buffer pH 4.5, shaken at 37° C. water bath for 2 hours): 20 µg/mL (≈ 51.2 µM); solubility at 2 hours ([3]; pH 6.8, aqueous buffer, buffer pH 6.8, shaken at 37° C. water bath for 2 hours): 20 µg/mL (≈ 51.2 µM)
99.70	99.88	99.87	99.88	99.87	99.85	99.81	stable	non-hygroscopic	good solubility	C[C@H](Nc1ncnc(N)c1C#N)c1cc2ncc(Cl)n2nc1-c1ccccc1 [Form V, (S)-4-amino-6-((1-(3-chloro-6-phenylimidazo[1,2-b]pyridazin-7-yl)ethyl)amino)pyrimidine-5-carbonitrile]	Solubility ([3]; buffer pH 1.2, shaken at 37° C. water bath for 2 hours): 9640 µg/mL (≈ 24700 µM); Solubility ([3]; buffer pH 2.1, shaken at 37° C. water bath for 2 hours): 580 µg/mL (≈ 1480 µM); Solubility ([3]; buffer pH 4.5, shaken at 37° C. water bath for 2 hours): 20 µg/mL (≈ 51.2 µM); Solubility ([3]; buffer pH 6.8, shaken at 37° C. water bath for 2 hours): 20 µg/mL (≈ 51.2 µM)
